# Assays:
# BaF3-NPM-ALK = test: Cell growth (Cell Titer-Glo viability), BaF3-NPM-ALK; type: cell-based; conditions: Mus musculus; BaF3-NPM-ALK (stably expressing ALK kinase), 72 hrs
# Description: (§1) By testing the effect of the novel kinase inhibitors on the proliferation of cancer cells, the selectivity of the compounds of the present disclosure in inhibiting the proliferation of cancer cells was further assessed. In this example, human non-small cell lung cancer cell NCI-H1975 (expressing EGFR L858R/T790M double mutant gene), human skin squamous carcinoma cell A431 (expressing wild-type EGFR gene), non-small cell lung cancer NCI-H3255 (expressing EGFR L858R mutant gene), non-small cell lung cancer cell NCI-H3122 (expressing ALK gene), human non-small cell lung cancer cell A549 (expressing wild-type EGFR gene), human non-small cell lung cancer cell NCI-H2122 (expressing wild-type EGFR gene), human non-small cell lung cancer cell NCI-H460 (expressing wild-type EGFR gene), human non-small cell lung cancer cell PC-9 (expressing EGFR delE746_A750 mutant gene), Chinese hamster ovary cell CHO (Cricetulus griseus, hamster, Chinese, ovary), Chinese hamster lung cell CHL, human non-small cell lung cancer cell HCC827 (expressing mutant EGFR del19 gene), human lung adenocarcinoma cell HCC4006 (expressing mutant EGFR del19 gene), human non-small cell lung cancer cell NCI-H2228 (expressing wild-type ALK gene), and mouse primary B cell BaF3 were used, and the above cells were all purchased from ATCC (US). In addition, mouse BaF3-TEL-ALK (stably expressing ALK kinase), mouse BaF3-ALK-F1174L (stably expressing mutant ALK F1174L kinase), mouse BaF3-NPM-ALK (stably expressing ALK kinase), mouse BaF3-TEL-EGFR (stably expressing EGFR kinase), mouse BaF3-TEL-EGFR-T790M (stably expressing EGFR T790M mutant kinase), mouse BaF3-FL-EGFR-Del19 (stably expressing EGFR delE746_A750 mutant kinase), mouse BaF3-TEL-EGFR-L858R (stably expressing EGFR L858R mutant kinase), mouse BaF3-FL-EGFR-T790M-L858R (stably expressing EGFR T790M/L858R mutant kinase), mouse BaF3-TEL-INSR (stably expressing INSR protein), mouse BaF3-TEL-IGF1R (stably expressing IGF1R Protein), mouse BaF3-EML4-ALK (stably expressing EML4-ALK Protein), mouse BaF3-TEL-JAK3 (stably expressing JAK3 kinase protein), mouse BaF3-TEL-CSF1R (stably expressing CSF1R protein), and mouse BaF3-TEL-ALK-F1196M (stably expressing ALK F1196M mutant kinase) were also used in this example. The above cell lines were all established by our laboratory via the following process: kinase proteins or protein domain sequences of human ALK, ALK F1174L, EGFR, EGFR T790M, EGFR delE746_A750, EGFR L858, EGFR T790M/L858R, INSR, IGF1R, EML4-ALK, JAK3, CSF1R, ALK F1196M were amplified respectively by PCR, and were respectively inserted into MSCV-Puro vector (Clontech) with N-terminal TEL fragments and/or NPM fragments and/or TPR fragments; the resultants were stably transfected into mouse BaF3 cells by the means of retrovirus, and the IL-3 growth factors were removed, and eventually the ALK, ALK F1174L, EGFR, EGFR T790M, EGFR delE746_A750, EGFR L858, EGFR T790M/L858R, INSR, IGF1R, EML4-ALK, JAK3, CSF1R, ALK F1196M-transferred protein dependent cell lines were obtained.
# (§2) The number of viable cells was determined quantitatively by a microplate reader using Cell Titer-Glo® (Promega, US) chemiluminescence cell viability assay kit.
# BaF3 = test: Cell growth (Cell Titer-Glo viability), BaF3; type: cell-based; conditions: BaF3 mouse primary B cell, 72 hrs
# Description: as §1, §2
# BaF3-TEL-EGFR = test: Cell growth (Cell Titer-Glo viability), BaF3-TEL-EGFR; type: cell-based; conditions: Mus musculus; BaF3-TEL-EGFR (stably expressing EGFR kinase), 72 hrs
# Description: as §1, §2
# A431 = test: Growth of cancer cells (Cell Titer-Glo viability), A431; type: cell-based; conditions: Homo sapiens, A-431; A431 (wild-type EGFR), 72 hrs; read-out: GI50
# Description: as §1, §2
# BaF3-ALK-F1174L = test: Cell growth (Cell Titer-Glo viability), BaF3-ALK-F1174L; type: cell-based; conditions: Mus musculus; BaF3-ALK-F1174L (mutant ALK F1174L kinase), 72 hrs
# Description: as §1, §2
# NCI-H2228 = test: Growth of cancer cells (Cell Titer-Glo viability), NCI-H2228; type: cell-based; conditions: Homo sapiens; NCI-H2228 (wild-type ALK), 72 hrs
# Description: as §1, §2
# HCC4006 = test: Growth of cancer cells (Cell Titer-Glo viability), HCC4006; type: cell-based; conditions: Homo sapiens; HCC4006 (mutant EGFR del19), 72 hrs
# Description: as §1, §2
# BaF3-TEL-ALK = test: Cell growth (Cell Titer-Glo viability), BaF3-TEL-ALK; type: cell-based; conditions: Mus musculus; BaF3-TEL-ALK (stably expressing ALK kinase), 72 hrs
# Description: as §1, §2
# CHL = test: Cell growth (Cell Titer-Glo viability), CHL; type: cell-based, Chinese hamster; conditions: Cricetulus griseus; CHL Chinese hamster lung cell, 72 hrs; read-out: GI50
# Description: as §1, §2
# BaF3-FL-EGFR-Del19 = test: Cell growth (Cell Titer-Glo viability), BaF3-FL-EGFR-Del19; type: cell-based; conditions: Mus musculus; BaF3-FL-EGFR-Del19 (EGFR delE746_A750 mutant kinase), 72 hrs
# Description: as §1, §2
# NCI-H3255 = test: Growth of cancer cells (Cell Titer-Glo viability), NCI-H3255; type: cell-based; conditions: Homo sapiens; NCI-H3255 (EGFR L858R mutant), 72 hrs
# Description: as §1, §2
# NCI-H1975 = test: Growth of cancer cells (Cell Titer-Glo viability), NCI-H1975; type: cell-based; conditions: Homo sapiens; NCI-H1975 (EGFR L858R/T790M double mutant), 72 hrs
# Description: as §1, §2
# NCI-H460 = test: Growth of cancer cells (Cell Titer-Glo viability), NCI-H460; type: cell-based; conditions: Homo sapiens; NCI-H460 (wild-type EGFR), 72 hrs
# Description: as §1, §2
# CHO = test: Cell growth (Cell Titer-Glo viability), CHO; type: cell-based, Chinese hamster; conditions: Cricetulus griseus; CHO Chinese hamster ovary cell, 72 hrs; read-out: GI50
# Description: as §1, §2
# NCI-H2122 = test: Growth of cancer cells (Cell Titer-Glo viability), NCI-H2122; type: cell-based; conditions: Homo sapiens; NCI-H2122 (wild-type EGFR), 72 hrs
# Description: as §1, §2
# PC-9 = test: Growth of cancer cells (Cell Titer-Glo viability), PC-9; type: cell-based; conditions: Homo sapiens; PC-9 (EGFR delE746_A750 mutant), 72 hrs
# Description: as §1, §2
# NCI-H3122 = test: Growth of cancer cells (Cell Titer-Glo viability), NCI-H3122; type: cell-based; conditions: Homo sapiens; NCI-H3122 (expressing ALK gene), 72 hrs; read-out: GI50
# Description: as §1, §2
# BaF3-TEL-EGFR-T790M = test: Cell growth (Cell Titer-Glo viability), BaF3-TEL-EGFR-T790M; type: cell-based; conditions: Mus musculus; BaF3-TEL-EGFR-T790M (EGFR T790M mutant kinase), 72 hrs
# Description: as §1, §2
# HCC827 = test: Growth of cancer cells (Cell Titer-Glo viability), HCC827; type: cell-based; conditions: Homo sapiens; HCC827 (mutant EGFR del19), 72 hrs
# Description: as §1, §2
# A549 = test: Growth of cancer cells (Cell Titer-Glo viability), A549; type: cell-based; conditions: Homo sapiens; A549 (wild-type EGFR), 72 hrs
# Description: as §1, §2
structure (smiles),measurement,setting,value
"C=CC(=O)Nc1cc(Nc2ncc(C)c(Nc3ccccc3S(=O)(=O)C(C)C)n2)c(OC)cc1N1CCC(N2CCN(C)CC2)CC1 [Compound 24, N-(5-(4-(2-(isopropylsulfonyl)phenylamino)-5-methylpyrimidin-2-ylamino)-4-methoxy-2-(4-(4-methylpiperazin-1-yl)piperidin-1-yl)phenyl)acrylamide]",GI50,BaF3-NPM-ALK,2 nM
same,GI50,BaF3,1600 nM
same,GI50,BaF3-TEL-EGFR,810 nM
same,GI50,A431,440 nM
same,GI50,BaF3-ALK-F1174L,16 nM
same,GI50,NCI-H2228,330 nM
same,GI50,HCC4006,14 nM
same,GI50,BaF3-TEL-ALK,< 0.3 nM
same,GI50,CHL,660 nM
same,GI50,BaF3-FL-EGFR-Del19,2 nM
same,GI50,NCI-H3255,130 nM
same,GI50,NCI-H1975,59 nM
same,GI50,NCI-H460,680 nM
same,GI50,CHO,1700 nM
same,GI50,NCI-H2122,230 nM
same,GI50,PC-9,50 nM
same,GI50,NCI-H3122,< 0.3 nM
same,GI50,BaF3-TEL-EGFR-T790M,100 nM
same,GI50,HCC827,6.2 nM
"C=CC(=O)Nc1cc(Nc2ncc(Cl)c(Nc3ccccc3S(=O)(=O)C(C)C)n2)c(OC)cc1N1CCCCC1 [Compound 6, N-(5-(5-chloro-4-(2-(isopropylsulfonyl)phenylamino)pyrimidin-2-ylamino)-4-methoxy-2-(piperidin-1-yl)phenyl) acrylamide]",GI50,BaF3,340 nM
same,GI50,A431,540 nM
same,GI50,BaF3-ALK-F1174L,310 nM
same,GI50,NCI-H2228,200 nM
same,GI50,HCC4006,260 nM
same,GI50,BaF3-TEL-ALK,15 nM
same,GI50,CHL,> 10000 nM
same,GI50,BaF3-FL-EGFR-Del19,6 nM
same,GI50,A549,330 nM
same,GI50,NCI-H1975,240 nM
same,GI50,CHO,360 nM
same,GI50,NCI-H2122,880 nM
same,GI50,PC-9,27 nM
same,GI50,NCI-H3122,29 nM
same,GI50,BaF3-TEL-EGFR-T790M,18 nM
same,GI50,HCC827,51 nM
"COc1cc(N2CCC(N3CCN(C)CC3)CC2)ccc1Nc1ncc(Cl)c(Nc2ccccc2S(=O)(=O)C(C)C)n1 [TAE-684, reference compound]",GI50,BaF3-NPM-ALK,< 3 nM
same,GI50,BaF3-TEL-EGFR,560 nM
same,GI50,A431,1300 nM
same,GI50,BaF3-ALK-F1174L,140 nM
same,GI50,NCI-H2228,580 nM
same,GI50,HCC4006,440 nM
same,GI50,BaF3-TEL-ALK,< 0.3 nM
same,GI50,NCI-H3255,1000 nM
same,GI50,A549,1500 nM
same,GI50,NCI-H460,470 nM
same,GI50,NCI-H2122,310 nM
same,GI50,PC-9,540 nM
same,GI50,NCI-H3122,< 0.3 nM
same,GI50,BaF3-TEL-EGFR-T790M,420 nM
same,GI50,HCC827,370 nM
"C=CC(=O)Nc1cc(Nc2ncc(Cl)c(Nc3ccccc3S(=O)(=O)C(C)C)n2)c(OC)cc1N1CCN(S(C)(=O)=O)CC1 [Compound 5, N-(5-(5-chloro-4-(2-(isopropylsulfonyl)phenylamino)pyrimidin-2-ylamino)-4-methoxy-2-(4-(methylsulfonyl)piperazin-1-yl)phenyl)acrylamide]",GI50,BaF3,2800 nM
same,GI50,A431,1100 nM
same,GI50,BaF3-ALK-F1174L,2300 nM
same,GI50,NCI-H2228,240 nM
same,GI50,HCC4006,160 nM
same,GI50,BaF3-TEL-ALK,10 nM
same,GI50,CHL,2300 nM
same,GI50,BaF3-FL-EGFR-Del19,7 nM
same,GI50,A549,3300 nM
same,GI50,NCI-H1975,40 nM
same,GI50,CHO,5200 nM
same,GI50,NCI-H2122,170 nM
same,GI50,PC-9,39 nM
same,GI50,NCI-H3122,< 0.3 nM
same,GI50,BaF3-TEL-EGFR-T790M,53 nM
same,GI50,HCC827,44 nM
"C=CC(=O)Nc1cc(Nc2ncc(Cl)c(Nc3ccccc3S(=O)(=O)C(C)C)n2)c(OC)cc1N1CCC(N2CCN(C)CC2)CC1 [Compound 8, N-(5-(5-chloro-4-(2-(isopropylsulfonyl)phenylamino)pyrimidin-2-ylamino)-4-methoxy-2-(4-(4-methylpiperazin-1-yl)piperidin-1-yl)phenyl)acrylamide]",GI50,BaF3-NPM-ALK,< 3 nM
same,GI50,BaF3,460 nM
same,GI50,BaF3-TEL-EGFR,430 nM
same,GI50,A431,370 nM
same,GI50,BaF3-ALK-F1174L,29 nM
same,GI50,NCI-H2228,350 nM
same,GI50,HCC4006,14 nM
same,GI50,BaF3-TEL-ALK,< 0.3 nM
same,GI50,CHL,800 nM
same,GI50,BaF3-FL-EGFR-Del19,2 nM
same,GI50,NCI-H3255,110 nM
same,GI50,NCI-H1975,45 nM
same,GI50,NCI-H460,660 nM
same,GI50,CHO,460 nM
same,GI50,NCI-H2122,200 nM
same,GI50,PC-9,53 nM
same,GI50,NCI-H3122,< 0.3 nM
same,GI50,BaF3-TEL-EGFR-T790M,46 nM
same,GI50,HCC827,2.7 nM
"CCC(=O)Nc1cc(Nc2ncc(Cl)c(Nc3ccccc3S(=O)(=O)C(C)C)n2)c(OC)cc1N1CCC(N2CCN(C)CC2)CC1 [Compound 30, N-(5-(5-chloro-4-(2-(isopropylsulfonyl)phenylamino)pyrimidin-2-ylamino)-4-methoxy-2-(4-(4-methylpiperazin-1-yl)piperidin-1-yl)phenyl)propionamide]",GI50,BaF3-NPM-ALK,< 3 nM
same,GI50,BaF3,470 nM
same,GI50,BaF3-TEL-EGFR,410 nM
same,GI50,A431,840 nM
same,GI50,BaF3-ALK-F1174L,73 nM
same,GI50,NCI-H2228,280 nM
same,GI50,HCC4006,260 nM
same,GI50,BaF3-TEL-ALK,< 0.3 nM
same,GI50,CHL,730 nM
same,GI50,BaF3-FL-EGFR-Del19,120 nM
same,GI50,NCI-H3255,640 nM
same,GI50,NCI-H1975,880 nM
same,GI50,NCI-H460,440 nM
same,GI50,CHO,1900 nM
same,GI50,NCI-H2122,150 nM
same,GI50,PC-9,53 nM
same,GI50,NCI-H3122,< 0.3 nM
same,GI50,BaF3-TEL-EGFR-T790M,230 nM
same,GI50,HCC827,150 nM

# — patent publication US10350210B2, “EGFR and ALK dual inhibitor” (PRECEDO PHARMACEUTICALS CO., LTD, priority 2015, dated 2019)
